Source: patent US11247990B1, “Bicyclic fused pyridine compounds as inhibitors of TAM kinases” (ARRAY BIOPHARMA INC., priority 2017, dated 2022)

The compounds below were run against His-tagged recombinant human MER cytoplasmic domain (Homo sapiens (Human), UniProt Q12866) (assay: MER Enzyme Assay (LanthaScreen Eu Kinase Binding, TR-FRET)). Conditions: averaged IC50.
Description: Compounds of Formula I were screened for their ability to inhibit MER kinase using Invitrogen's LanthaScreen™ Eu Kinase Binding technology. […] After a 60-minute incubation at 22° C., the reaction was measured using a PerkinElmer EnVision multimode plate reader via TR-FRET dual wavelength detection, and the percent of control (POC) was calculated using a ratiometric emission factor. […] The POC values are fit to a 4 parameter logistic curve and the IC50 value is point where the curve crosses 50 POC.

His-tagged recombinant human MER cytoplasmic domain, sequence (Q12866 527-999): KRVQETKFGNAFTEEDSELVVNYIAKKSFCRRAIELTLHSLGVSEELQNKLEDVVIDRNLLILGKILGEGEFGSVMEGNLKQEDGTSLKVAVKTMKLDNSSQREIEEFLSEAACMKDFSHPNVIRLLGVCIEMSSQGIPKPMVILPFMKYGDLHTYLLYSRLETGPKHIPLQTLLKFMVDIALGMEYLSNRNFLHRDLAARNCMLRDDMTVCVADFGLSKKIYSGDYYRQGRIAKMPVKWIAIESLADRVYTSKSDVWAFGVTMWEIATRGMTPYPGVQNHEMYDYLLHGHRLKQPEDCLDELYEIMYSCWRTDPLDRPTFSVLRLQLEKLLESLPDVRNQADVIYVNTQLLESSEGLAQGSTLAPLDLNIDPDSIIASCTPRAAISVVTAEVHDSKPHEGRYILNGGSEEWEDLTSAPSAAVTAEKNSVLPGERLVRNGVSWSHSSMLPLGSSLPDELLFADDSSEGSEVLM

IC50, < 10 nM:
CCNc1cc2c(cn1)c(-c1ccc3c(c1)CNC3=O)nn2[C@H]1CC[C@@H](Oc2cn(C)nc2C)CC1 [Example 230, 5-(1-((1s,4s)-4-((1,3-dimethyl-1H-pyrazol-4-yl)oxy)cyclohexyl)-6-(ethylamino)-1H-pyrazolo[4,3-c]pyridin-3-yl)isoindolin-1-one]
CCNc1cc2c(cn1)c(-c1cnn(C(CO)CO)c1)nn2[C@H]1CC[C@@H](Oc2ccccc2F)CC1 [Example 411, 2-(4-(6-(ethylamino)-1-((1s,4s)-4-(2-fluorophenoxy)cyclohexyl)-1H-pyrazolo[4,3-c]pyridin-3-yl)-1H-pyrazol-1-yl)propane-1,3-diol]
CCNc1cc2c(cn1)c(-c1ccn(C)c(=O)c1)nn2[C@H]1CC[C@@H](Oc2ccccc2F)CC1 [Example 398, 4-(6-(ethylamino)-1-((1s,4s)-4-(2-fluorophenoxy)cyclohexyl)-1H-pyrazolo[4,3-c]pyridin-3-yl)-1-methylpyridin-2(1H)-one]
CCNc1cc2c(cn1)c(-c1ccc(C(=O)NC3CC3)cc1)nn2[C@H]1CC[C@@H](Oc2cn(C)nc2C)CC1 [Example 231, N-cyclopropyl-4-(1-((1s,4s)-4-((1,3-dimethyl-1H-pyrazol-4-yl)oxy)cyclohexyl)-6-(ethylamino)-1H-pyrazolo[4,3-c]pyridin-3-yl)benzamide]
CCNc1cc2c(cn1)n(-c1ccc(CN3CCN(C)CC3)cc1)nc2[C@H]1CC[C@@H](Oc2ccccc2F)CC1 [Example 482, N-ethyl-3-((1s,4s)-4-(2-fluorophenoxy)cyclohexyl)-1-(4-((4-methylpiperazin-1-yl)methyl)phenyl)-1H-pyrazolo[3,4-c]pyridin-5-amine]
CCNc1cc2c(cn1)c(Br)nn2[C@H]1CC[C@@H](Oc2ccc(=O)[nH]c2C(F)(F)F)CC1 [Example 106]
CCNc1cc2c(cn1)c(-c1ccc(CN3CC[C@@H](CO)C3)cc1)nn2[C@H]1CC[C@@H](Oc2ccc(=O)n(C)n2)CC1 [Example 95, 6-(((1S,4s)-4-(6-(ethylamino)-3-(4-(((R)-3-(hydroxymethyl)pyrrolidin-1-yl)methyl)phenyl)-1H-pyrazolo[4,3-c]pyridin-1-yl)cyclohexyl)oxy)-2-methylpyridazin-3(2H)-one]
CCNc1cc2c(cn1)c(-c1cnn(C[C@@H](O)C(C)(C)O)c1)nn2[C@H]1CC[C@@H](Oc2cccc(Cl)c2)CC1 [Example 443, (R)-1-(4-(1-((1s,4S)-4-(3-chlorophenoxy)cyclohexyl)-6-(ethylamino)-1H-pyrazolo[4,3-c]pyridin-3-yl)-1H-pyrazol-1-yl)-3-methylbutane-2,3-diol]
CCNc1cc2c(cn1)c(-c1cnn(C[C@@H](O)CO)c1)nn2[C@H]1CC[C@@H](Oc2ccnc(C(F)(F)F)n2)CC1 [Example 241, (R)-3-(4-(6-(ethylamino)-1-((1s,4S)-4-((2-(trifluoromethyl)pyrimidin-4-yl)oxy)cyclohexyl)-1H-pyrazolo[4,3-c]pyridin-3-yl)-1H-pyrazol-1-yl)propane-1,2-diol]
CNc1cc2c(cn1)c(-c1cnn(C)c1)nn2[C@H]1CC[C@@H](Oc2c(F)cccc2F)CC1 [Example 356, 1-((1s,4s)-4-(2,6-difluorophenoxy)cyclohexyl)-N-methyl-3-(1-methyl-1H-pyrazol-4-yl)-1H-pyrazolo[4,3-c]pyridin-6-amine]
CCNc1cc2c(cn1)c(-c1cnn(C)c1)nn2[C@H]1CC[C@@H](Oc2cnnn2CC)CC1 [Example 225, N-ethyl-1-((1 s,4s)-4-((1-ethyl-1H-1,2,3-triazol-5-yl)oxy)cyclohexyl)-3-(1-methyl-1H-pyrazol-4-yl)-1H-pyrazolo[4,3-c]pyridin-6-amine]
CCNc1cc2c(cn1)c(-c1cnn(C[C@H](O)[C@H](C)O)c1)nn2[C@H]1CC[C@@H](Oc2ccccc2F)CC1 [Example 430, (2S,3S)-1-(4-(6-(ethylamino)-1-((1s,4R)-4-(2-fluorophenoxy)cyclohexyl)-1H-pyrazolo[4,3-c]pyridin-3-yl)-1H-pyrazol-1-yl)butane-2,3-diol]
CCNc1cc2c(cn1)c(-c1cnn(C)c1)nn2[C@H]1CC[C@@H](Oc2nccnc2C)CC1 [Example 189, N-ethyl-3-(1-methyl-1H-pyrazol-4-yl)-1-((1s,4s)-4-((3-methylpyrazin-2-yl)oxy)cyclohexyl)-1H-pyrazolo[4,3-c]pyridin-6-amine]
CCNc1cc2c(cn1)c(-c1cnn(C(CO)CO)c1)nn2[C@H]1CC[C@@H](Oc2cc(F)ccc2F)CC1 [Example 416, 2-(4-(1-((1s,4s)-4-(2,5-difluorophenoxy)cyclohexyl)-6-(ethylamino)-1H-pyrazolo[4,3-c]pyridin-3-yl)-1H-pyrazol-1-yl)propane-1,3-diol]
CCNc1cc2c(cn1)c(-c1cnn(C3CCS(=O)(=O)C3)c1)nn2[C@H]1CC[C@@H](Oc2ccccc2F)CC1 (some centres unmarked) [Example 425, 3-(4-(6-(ethylamino)-1-((1s,4s)-4-(2-fluorophenoxy)cyclohexyl)-1H-pyrazolo[4,3-c]pyridin-3-yl)-1H-pyrazol-1-yl)tetrahydrothiophene 1,1-dioxide]
CCNc1cc2c(cn1)c(-c1cnn(C(CO)CO)c1)nn2[C@H]1CC[C@@H](Oc2ccc(F)cc2)CC1 [Example 413]
CCNc1cc2c(cn1)c(-c1ccc(CN3CCN(C)CC3)cc1)nn2[C@H]1CC[C@@H](Oc2cn(C)nc2C)CC1 [Example 229, 1-((1s,4s)-4-((1,3-dimethyl-1H-pyrazol-4-yl)oxy)cyclohexyl)-N-ethyl-3-(4-((4-methylpiperazin-1-yl)methyl)phenyl)-1H-pyrazolo[4,3-c]pyridin-6-amine]
CCNc1cc2c(cn1)c(-c1cnn(C(C)(C)C#N)c1)nn2[C@H]1CC[C@@H](Oc2nccnc2C)CC1 [Example 181, 2-(4-(6-(ethylamino)-1-((1s,4s)-4-((3-methylpyrazin-2-yl)oxy)cyclohexyl)-1H-pyrazolo[4,3-c]pyridin-3-yl)-1H-pyrazol-1-yl)-2-methylpropanenitrile]
CCNc1cc2c(cn1)c(-c1ccc(CN3CC[C@@H](OC)C3)cc1)nn2[C@H]1CC[C@@H](Oc2ccc(=O)n(C)n2)CC1 [Example 83, 6-(((1S,4s)-4-(6-(ethylamino)-3-(4-(((R)-3-methoxypyrrolidin-1-yl)methyl)phenyl)-1H-pyrazolo[4,3-c]pyridin-1-yl)cyclohexyl)oxy)-2-methylpyridazin-3(2H)-one]
CCNc1cc2c(cn1)c(-c1ccc(CN3CC[C@@H](C)C3)cc1)nn2C1CCC(Oc2ccc(=O)n(C)n2)CC1 (stereo partly drawn) [Example 98, 6-(((1S,4s)-4-(6-(ethylamino)-3-(4-(((R)-3-methylpyrrolidin-1-yl)methyl)phenyl)-1H-pyrazolo[4,3-c]pyridin-1-yl)cyclohexyl)oxy)-2-methylpyridazin-3(2H)-one]
CCNc1cc2c(cn1)c(-c1cnn(C)c1)nn2[C@H]1CC[C@@H](Oc2cccnc2C2CC2)CC1 [Example 186, 1-((1s,4s)-4-((2-cyclopropylpyridin-3-yl)oxy)cyclohexyl)-N-ethyl-3-(1-methyl-1H-pyrazol-4-yl)-1H-pyrazolo[4,3-c]pyridin-6-amine]
CCNc1cc2c(cn1)c(-c1cn[nH]c1)nn2[C@H]1CC[C@@H](Oc2ccccc2F)CC1 [Example 401, N-ethyl-1-((1s,4s)-4-(2-fluorophenoxy)cyclohexyl)-3-(1H-pyrazol-4-yl)-1H-pyrazolo[4,3-c]pyridin-6-amine]
CCNc1cc2c(cn1)c(-c1cnn(C[C@@H](O)CO)c1)nn2[C@H]1CC[C@@H](Oc2cccc(C)c2F)CC1 [Example 438, (R)-3-(4-(6-(ethylamino)-1-((1s,4S)-4-(2-fluoro-3-methylphenoxy)cyclohexyl)-1H-pyrazolo[4,3-c]pyridin-3-yl)-1H-pyrazol-1-yl)propane-1,2 diol]
CCNc1cc2c(cn1)c(-c1ccc(CN3CCN(C)CC3)cc1)nn2[C@H]1CC[C@@H](Oc2cnn(C)c2)CC1 [Example 233, N-ethyl-1-((1s,4s)-4-((1-methyl-1H-pyrazol-4-yl)oxy)cyclohexyl)-3-(4-((4-methylpiperazin-1-yl)methyl)phenyl)-1H-pyrazolo[4,3-c]pyridin-6-amine]
CNc1cc2c(cn1)c(-c1cnn(C)c1)nn2[C@H]1CC[C@@H](Oc2cccnc2OC)CC1 [Example 142, 1-((1s,4s)-4-((2-methoxypyridin-3-yl)oxy)cyclohexyl)-N-methyl-3-(1-methyl-1H-pyrazol-4-yl)-1H-pyrazolo[4,3-c]pyridin-6-amine]
CCNc1cc2c(cn1)c(-c1cnn(C)c1)nn2[C@H]1CC[C@@H](Oc2ccc(C(=O)NC)cc2C(F)(F)F)CC1 [Example 392, 4-(((1s,4s)-4-(6-(ethylamino)-3-(1-methyl-1H-pyrazol-4-yl)-1H-pyrazolo[4,3-c]pyridin-1-yl)cyclohexyl)oxy)-N-methyl-3-(trifluoromethyl)benzamide]
CCNc1cc2c(cn1)c(-c1cnn(C)c1)nn2[C@H]1CC[C@@H](Oc2cccnc2CC)CC1 [Example 193, N-ethyl-1-((1s,4s)-4-((2-ethylpyridin-3-yl)oxy)cyclohexyl)-3-(1-methyl-1H-pyrazol-4-yl)-1H-pyrazolo[4,3-c]pyridin-6-amine]
CNc1cc2c(cn1)c(-c1cnn(C)c1)nn2[C@H]1CC[C@@H](Oc2ccnn2C)CC1 [Example 143, N-methyl-3-(1-methyl-1H-pyrazol-4-yl)-1-((1s,4s)-4-((1-methyl-1H-pyrazol-5-yl)oxy)cyclohexyl)-1H-pyrazolo[4,3-c]pyridin-6-amine]
CCNc1cc2c(cn1)c(-c1ccc(CN3C[C@H](C)[C@@H](O)C3)cc1)nn2[C@H]1CC[C@@H](Oc2ccc(=O)n(C)n2)CC1 [Example 96, 6-(((1S,4s)-4-(6-(ethylamino)-3-(4-(((3R,4S)-3-hydroxy-4-methylpyrrolidin-1-yl)methyl)phenyl)-1H-pyrazolo[4,3-c]pyridin-1-yl)cyclohexyl)oxy)-2-methylpyridazin-3(2H)-one]
